Test results from ChEMBL document CHEMBL1201862, “PubChem BioAssay data set” (2004).
One block for each molecule: values may come before it. The source made the active and inactive calls.

What was measured:
[1] = Luminescence-based cell-based high throughput dose response assay to identify activators of the DAF-12 from the parasite S. stercoralis (ssDAF-12).; assay type: functional
[2] = biological target: T1, Oxysterols receptor LXR-beta (Homo sapiens, UniProt P55055); assay: LXR agonists, Gal4 luciferase reporter, dose response, counter-screen for ssDAF-12 agonist project, cell-based, luminescence, HEK293, S. stercoralis campaign (AID 720737); assay type: functional; conditions: read-out: IC50 (the source's name)
T1 sequence (P55055 whole entry): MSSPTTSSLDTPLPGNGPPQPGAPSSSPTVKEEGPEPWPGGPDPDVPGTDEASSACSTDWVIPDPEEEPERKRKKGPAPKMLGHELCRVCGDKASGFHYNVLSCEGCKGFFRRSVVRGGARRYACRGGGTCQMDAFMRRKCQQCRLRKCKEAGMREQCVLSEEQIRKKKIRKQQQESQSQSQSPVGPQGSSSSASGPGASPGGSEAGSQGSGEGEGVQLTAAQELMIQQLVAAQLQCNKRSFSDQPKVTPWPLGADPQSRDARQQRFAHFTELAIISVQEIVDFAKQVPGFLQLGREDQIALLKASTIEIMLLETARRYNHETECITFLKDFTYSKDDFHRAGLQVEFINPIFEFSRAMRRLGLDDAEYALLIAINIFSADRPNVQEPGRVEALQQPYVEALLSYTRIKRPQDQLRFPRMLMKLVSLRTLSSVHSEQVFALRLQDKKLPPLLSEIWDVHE

[3] = blockers of FN fibrillogenesis by fibroblasts – AH1F cells, Alexa488-FN fluorescence, cherry-picks, dose response (AID 1035475); assay type: functional, cell-based
[4] = viability loss in HEK293 kidney cells – cell-based, cherry-picks, set 5, cytotoxicity control, dose response (AID 1053117); assay type: functional
[5] = biological target: Disintegrin and metalloproteinase domain-containing protein 17 (Homo sapiens, UniProt P78536); assay: exosite inhibitors of ADAM17, dose response, biochemical (AID 743260)
[6] = inhibition of ADAM10 peptide cleavage – biochemical, FRET peptide substrate, recombinant human ADAM10, selectivity assay for ADAM17 exosite inhibitor project, dose response (AID 743259);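 note: ADAM10 enzyme cleaving a FRET peptide substrate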
[7] = viability loss in CEM21 cells – cell-based, plate reader, dry powder, cytotoxicity control, dose response (AID 687026); assay type: functional
[8] = biological target: Endoplasmic reticulum aminopeptidase 1 (Homo sapiens, UniProt Q9NZ08); assay: inhibition of human ERAP1 enzyme activity – biochemical, cherry-pick, set 2, plate reader, dose response (AID 743314)
Sequence of Endoplasmic reticulum aminopeptidase 1 (Q9NZ08 whole entry): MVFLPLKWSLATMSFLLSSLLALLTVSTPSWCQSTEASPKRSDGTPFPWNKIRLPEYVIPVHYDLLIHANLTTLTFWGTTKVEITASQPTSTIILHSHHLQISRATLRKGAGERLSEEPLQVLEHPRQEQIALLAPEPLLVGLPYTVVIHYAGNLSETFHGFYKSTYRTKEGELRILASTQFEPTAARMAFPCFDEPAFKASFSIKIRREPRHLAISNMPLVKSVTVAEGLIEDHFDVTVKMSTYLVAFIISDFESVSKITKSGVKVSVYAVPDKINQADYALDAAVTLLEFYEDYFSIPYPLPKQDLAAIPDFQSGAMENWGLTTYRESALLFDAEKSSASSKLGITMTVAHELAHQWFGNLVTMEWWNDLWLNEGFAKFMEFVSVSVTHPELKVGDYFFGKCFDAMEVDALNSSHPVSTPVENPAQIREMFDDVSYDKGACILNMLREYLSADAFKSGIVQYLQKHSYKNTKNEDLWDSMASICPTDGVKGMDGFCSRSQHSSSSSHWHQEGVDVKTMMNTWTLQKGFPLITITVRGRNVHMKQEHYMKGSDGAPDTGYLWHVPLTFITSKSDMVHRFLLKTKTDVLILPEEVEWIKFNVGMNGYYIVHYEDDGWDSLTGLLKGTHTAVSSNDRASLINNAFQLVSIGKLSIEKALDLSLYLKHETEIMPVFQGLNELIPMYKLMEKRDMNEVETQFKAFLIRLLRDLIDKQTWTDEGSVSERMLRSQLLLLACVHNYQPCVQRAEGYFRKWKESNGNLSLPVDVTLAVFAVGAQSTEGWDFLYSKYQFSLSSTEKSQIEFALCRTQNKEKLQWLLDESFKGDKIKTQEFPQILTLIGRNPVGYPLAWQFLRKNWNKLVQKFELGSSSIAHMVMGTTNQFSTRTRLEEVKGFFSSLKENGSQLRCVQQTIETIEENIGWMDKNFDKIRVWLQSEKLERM

Sequence of Disintegrin and metalloproteinase domain-containing protein 17 (P78536 whole entry, the tested form may be a part): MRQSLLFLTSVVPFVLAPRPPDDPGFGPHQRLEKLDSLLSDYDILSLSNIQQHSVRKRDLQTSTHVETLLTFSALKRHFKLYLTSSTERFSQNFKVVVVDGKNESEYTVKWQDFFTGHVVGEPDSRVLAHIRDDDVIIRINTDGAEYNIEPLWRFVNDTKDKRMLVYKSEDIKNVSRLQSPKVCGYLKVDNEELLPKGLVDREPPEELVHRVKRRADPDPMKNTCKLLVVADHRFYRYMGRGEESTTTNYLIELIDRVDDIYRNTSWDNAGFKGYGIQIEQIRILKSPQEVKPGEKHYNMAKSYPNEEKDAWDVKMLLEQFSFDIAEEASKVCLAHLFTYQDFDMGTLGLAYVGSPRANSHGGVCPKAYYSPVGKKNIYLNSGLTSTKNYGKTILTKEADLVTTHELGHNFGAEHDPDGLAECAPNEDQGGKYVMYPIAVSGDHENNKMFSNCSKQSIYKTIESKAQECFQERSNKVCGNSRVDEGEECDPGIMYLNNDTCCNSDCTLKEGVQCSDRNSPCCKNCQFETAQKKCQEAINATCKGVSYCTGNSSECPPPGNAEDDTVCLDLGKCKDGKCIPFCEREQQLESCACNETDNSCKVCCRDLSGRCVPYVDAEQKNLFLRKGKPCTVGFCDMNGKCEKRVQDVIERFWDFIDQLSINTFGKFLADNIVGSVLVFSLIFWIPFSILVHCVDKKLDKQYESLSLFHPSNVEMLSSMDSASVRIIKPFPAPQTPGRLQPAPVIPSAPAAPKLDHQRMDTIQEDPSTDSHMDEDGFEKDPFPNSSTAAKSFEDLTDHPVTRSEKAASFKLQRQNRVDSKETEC

SMILES: CCOc1ccccc1-n1nnnc1SCc1nc2ccccc2s1
IC50 [1]: > 67.5 µM (inactive) | EC50 [2]: > 67.5 µM (inactive)

SMILES: C[C@@H]1CN([C@@H](C)CO)C(=O)c2cc(NC(=O)C3CCCCC3)ccc2O[C@@H]1CN(C)Cc1ccc(-c2ccccc2)cc1
AC50 [3]: > 70 µM (inactive) | AC50 [4]: > 52 µM (inactive)

IC50 [5]: > 69.5 µM (inactive)
SMILES: Cc1ccc(C2=NS(=O)(=O)N(C)C(C(=O)Nc3ccc4c(c3)OCO4)=C2)cc1
IC50 [6]: 19 µM (inactive)

SMILES: CCOc1ccc(S(=O)(=O)NC(C)c2ccncc2)cc1 (stereo not drawn)
AC50 [7]: > 70 µM (inactive)

AC50 [8]: 11.8 µM (active)
SMILES: Cc1cc(=O)oc2c(CN3CCCC3)c(O)ccc12
